≈ marks a conversion by molar mass, not a printed value.

Experimental findings from patent publication US10889560B2, “4-amino-2-pyrido-bicyclic pyrimidines and use thereof as topoisomerase II inhibitors” (FONDAZIONE ISTITUTO ITALIANO DI TECNOLOGIA, priority 2016, dated 2021) are described below.

The nature of one data set: Kinetic solubility. The format is physicochemical. Particulars: kinetic from dmso stock.
A short description of data set [1]: Stability in mouse plasma. The format is in vitro ADME. Particulars: read-out: Stability (t 1/2) Mouse plasma.
A short description of data set [2]: Stability in mouse liver microsomes. The format is in vitro ADME. The settings on record: read-out: Stability (t 1/2) Mouse liver microsomes. On the technique in general: Liver microsomes are a subcellular fraction often used to study metabolism.
For data set [3], the target named is human type II topoisomerase (topo II). Nature of the data set: Topo II inhibitory activity. The format is biochemical.
The next data set relates to A549. Nature of the data set: Cell activity (cancer cell proliferation), A549. The format is cell-based. Particulars: Homo sapiens.
For another data set, the system named is DU145. Nature of the data set: Cell activity (cancer cell proliferation), DU145. The format is cell-based. Particulars: Homo sapiens, DU-145.
The nature of the next data set: Thermodynamic solubility. The format is physicochemical. The settings on record: thermodynamic from solid; Termodinamic.
A further data set concerns A375. Nature of the data set: Cell activity (cancer cell proliferation), A375. The format is cell-based. Particulars: Homo sapiens, A-375.
For the next data set, the system named is HeLa. Briefly: Cell activity (cancer cell proliferation), HeLa. The format is cell-based. The settings on record: Homo sapiens.
For a further data set, the system named is G361. Briefly: Cell activity (cancer cell proliferation), G361. The format is cell-based. Particulars: Homo sapiens, G-361.
The test system of a further data set is MCF7. Briefly: Cell activity (cancer cell proliferation), MCF7. The format is cell-based. Particulars: Homo sapiens.

As usually defined, the solubility (kinetic) is solubility judged after dilution from a stock solution rather than from solid. `N[C@@H]1CCc2nc(-c3ccncc3)nc(Nc3cccc(F)c3)c2C1` (single isomer, unassigned) [Example E1.2]: in the data set “Kinetic solubility”, the kinetic solubility was above 250 µM. Also, the half-life in data set [1] is above 2 h.
In turn, `N[C@H]1CCc2nc(-c3ccncc3)nc(Nc3cccc(F)c3)c2C1` (single isomer, unassigned) [Example E1.3] came in with a solubility (kinetic) in “Kinetic solubility” above 250 µM. In data set [1], the half-life is above 2 h.
Consider `NC1CCc2nc(-c3ccncc3)nc(Nc3cccc(F)c3)c2C1` (stereo not drawn) [Example E1.1, N4-(3-fluorophenyl)-2-(4-pyridyl)-5,6,7,8-tetrahydroquinazoline-4,6-diamine], for which the solubility (kinetic) in the data set “Kinetic solubility” is above 250 µM. In addition, the half-life in data set [1] is above 2 h; in data set [2] it was above 1 h.
As usually defined, the IC50 is the concentration needed to halve the response being measured. The compound `Cc1cccc(Nc2nc(-c3ccncc3)nc3c2CC(N)CC3)c1` (stereo not drawn) [Example E1.4, N4-(m-tolyl)-2-(4-pyridyl)-5,6,7,8-tetrahydroquinazoline-4,6-diamine] gave a solubility (kinetic) in “Kinetic solubility” of 249 µM (≈ 82.5 µg/mL). Also, the IC50 came to 200 ± 20 µM in data set [3], 14.4 µM in the data set on A549 and 12.3 µM with DU145. For the same compound, the half-life in data set [1] is above 2 h.
In the data set “Kinetic solubility”, `COc1cccc(Nc2nc(-c3ccncc3)nc3c2CC(N)CC3)c1` (stereo not drawn) [Example E1.5, N4-(3-methoxyphenyl)-2-(4-pyridyl)-5,6,7,8-tetrahydroquinazoline-4,6-diamine] yielded a solubility (kinetic) above 250 µM. Also, the IC50 with A549 was 26.2 µM. Further, the half-life in data set [1] is above 2 h.
Consider `Nc1cccc(Nc2nc(-c3ccncc3)nc3c2CC(N)CC3)c1` (stereo not drawn) [Example E1.6, N4-(3-aminophenyl)-2-(4-pyridyl)-5,6,7,8-tetrahydroquinazoline-4,6-diamine], for which the IC50 in data set [3] is above 500 µM; in the data set with A549 it was 75.9 µM; in the data set on DU145, 37.4 µM.
On to `CNc1cccc(Nc2nc(-c3ccncc3)nc3c2CC(N)CC3)c1` (stereo not drawn) [Example E1.7, N4-[3-(methylamino)phenyl]-2-(4-pyridyl)-5,6,7,8-tetrahydroquinazoline-4,6-diamine], for which the 50% inhibitory concentration (IC50) in data set [3] was above 200 µM; in the data set on A549 it was 33.4 µM; in the data set with DU145 it was 24.5 µM.
For the compound `NC1CCc2nc(-c3ccncc3)nc(Nc3ccc(F)cc3)c2C1` (stereo not drawn) [Example E1.8, N4-(4-fluorophenyl)-2-(4-pyridyl)-5,6,7,8-tetrahydroquinazoline-4,6-diamine], in the data set “Kinetic solubility”, the solubility (kinetic) is above 250 µM. For the same compound, in [1], the half-life was above 2 h.
Turning to `NC1CCc2nc(-c3ccncc3)nc(Nc3ccc(O)cc3)c2C1` (stereo not drawn) [Example E1.9, 4-[[6-amino-2-(4-pyridyl)-5,6,7,8-tetrahydroquinazolin-4-yl]amino]phenol], the IC50 was above 500 µM in data set [3], 74.5 µM in the data set with A549 and 20.8 µM in the data set on DU145.
For the compound `NC1CCc2nc(-c3cccnc3)nc(Nc3cccc(F)c3)c2C1` (stereo not drawn) [Example E1.10, N4-(3-fluorophenyl)-2-(3-pyridyl)-5,6,7,8-tetrahydroquinazoline-4,6-diamine], the values for the IC50 with A549 and with DU145 were 21.3 µM and 25.4 µM, respectively. The half-life in data set [1] was above 2 h.
In general, solubility refers to the concentration that dissolves in the medium under given conditions. The low end stands for a poorly soluble substance, the high end for a readily soluble substance. In the data set “Kinetic solubility”, `CN(C)c1ccc(Nc2nc(-c3ccncc3)nc3c2CC(N)CC3)cc1` (stereo not drawn) [Example E1.11, N4-[4-(dimethylamino)phenyl]-2-(4-pyridyl)-5,6,7,8-tetrahydroquinazoline-4,6-diamine] had a kinetic solubility above 250 µM. The compound also gave a solubility in “Thermodynamic solubility” of 452 µM (≈ 163 µg/mL). In data set [3], this compound came in with an IC50 of 3.5 ± 0.5 µM. Also, the half-life was above 2 h in data set [1] and above 1 h in data set [2].
As to `Fc1cccc(Nc2nc(-c3ccncc3)nc3c2CNCC3)c1` [Example E2.1, N-(3-fluorophenyl)-2-(4-pyridyl)-5,6,7,8-tetrahydropyrido[4,3-d]pyrimidin-4-amine], the solubility (kinetic) in the data set “Kinetic solubility” was above 250 µM. The same compound returned a solubility in “Thermodynamic solubility” of 96 µM (≈ 30.9 µg/mL). Besides, the IC50 in [3] is 25 ± 5 µM; in the data set on A549 it was 23.7 µM; in the data set with A375, 29.6 µM; with HeLa it was 32.3 µM; in the data set with G361 it was 6.1 µM; with DU145, 32.9 µM. The compound also registered an IC50 in the data set with MCF7 of 33.4 µM. Moreover, the results for the half-life in data set [1] and in [2] were above 2 h and 0.65 h, respectively.
In the data set “Kinetic solubility”, `COc1cccc(Nc2nc(-c3ccncc3)nc3c2CNCC3)c1` [Example E2.2, N-(3-methoxyphenyl)-2-(4-pyridyl)-5,6,7,8-tetrahydropyrido[4,3-d]pyrimidin-4-amine] yielded a solubility (kinetic) above 250 µM. In addition, the IC50 in [3] came out at 120 ± 13 µM; with A549 it was 35.3 µM; in the data set on DU145 it was 25 µM. Besides, in data set [1], the half-life is above 2 h.
In the data set “Kinetic solubility”, `Nc1cccc(Nc2nc(-c3ccncc3)nc3c2CNCC3)c1` [Example E2.3, N1-[2-(4-pyridyl)-5,6,7,8-tetrahydropyrido[4,3-d]pyrimidin-4-yl]benzene-1,3-diamine] displayed a kinetic solubility above 250 µM. Also, the half-inhibitory concentration (IC50) in data set [3] is 150 ± 18 µM; in the data set with A549 it was 513 µM; with DU145, 85.2 µM. Besides, the half-life in data set [1] is above 2 h.
The compound `CNc1cccc(Nc2nc(-c3ccncc3)nc3c2CNCC3)c1` [Example E2.4, N3-methyl-N1-[2-(4-pyridyl)-5,6,7,8-tetrahydropyrido[4,3-d]pyrimidin-4-yl]benzene-1,3-diamine] showed a kinetic solubility in the data set “Kinetic solubility” above 250 µM. The IC50 in data set [3] is 160 ± 20 µM; in the data set with A549 it was 61.9 µM; with DU145, 45 µM. Moreover, the half-life in data set [1] is above 2 h.
For `CN(C)c1cccc(Nc2nc(-c3ccncc3)nc3c2CNCC3)c1` [Example E2.5, N3,N3-dimethyl-N1-[2-(4-pyridyl)-5,6,7,8-tetrahydropyrido[4,3-d]pyrimidin-4-yl]benzene-1,3-diamine], in the data set “Kinetic solubility”, the solubility (kinetic) is above 250 µM. For the same compound, the values for the IC50 (in data set [3]; in the data set with A549; in the data set on DU145) were 140 ± 20 µM, 40.8 µM and 42.5 µM, respectively. In addition, the half-life in data set [1] was above 2 h.
In data set [3], `Oc1ccc(Nc2nc(-c3ccncc3)nc3c2CNCC3)cc1` [Example E2.6, 4-[[2-(4-pyridyl)-5,6,7,8-tetrahydropyrido[4,3-d]pyrimidin-4-yl]amino]phenol] came in with an IC50 of 200 ± 15 µM.
`Fc1ccccc1Nc1nc(-c2ccncc2)nc2c1CNCC2` [Example E2.7, N-(2-fluorophenyl)-2-(4-pyridyl)-5,6,7,8-tetrahydropyrido[4,3-d]pyrimidin-4-amine] displayed a kinetic solubility in “Kinetic solubility” above 250 µM. Further, the concentration in solution in the data set “Thermodynamic solubility” (solubility) came to 596 µM (≈ 192 µg/mL). Inhibition in [3] was half-maximal at 4.5 ± 1 µM (IC50). For the same compound, the half-life in data set [1] was above 2 h; in data set [2] it was 0.5 h.
`Nc1ccc2nc(-c3ccncc3)nc(Nc3cccc(F)c3)c2c1` [Example E3, N4-(3-fluorophenyl)-2-(4-pyridyl)quinazoline-4,6-diamine] had a solubility (kinetic) in the data set “Kinetic solubility” of 17 µM (≈ 5.63 µg/mL). Further, the solubility in the data set “Thermodynamic solubility” was determined as 0.2 µM (≈ 0.0663 µg/mL). Also, the IC50 in [3] came out at 80 ± 15 µM; in the data set on A549, 9.2 µM; in the data set with A375, 8.3 µM; in the data set on HeLa, 4.7 µM; with G361, 10.4 µM; in the data set with DU145, 7.7 µM. This compound registered an IC50 in the data set with MCF7 of 8.6 µM. The half-life in [1] was determined as 1.48 h; in [2], 0.367 h.
Turning to `Fc1cccc(Nc2nc(-c3ccncc3)nc3ccncc23)c1` [Example E4, N-(3-fluorophenyl)-2-(4-pyridyl)pyrido[4,3-d]pyrimidin-4-amine], in [3], the IC50 is above 200 µM.
With `Fc1cccc(Nc2nc(-c3ccncc3)nc3ccccc23)c1` [Example E6, N-(3-fluorophenyl)-2-(4-pyridyl)quinazolin-4-amine], the “Activity Topo II IC50 (μM)” value in [3] is “inactive”.
